Positions of bridges follow the written chain, without caps; N, C: chain ends. Non-standard residues stand in square brackets, D forms with d. No end group written: not given here. *: point of attachment. GABA = NCCCC(=O)O; Acm = CC(=O)NC*

One data set has as its system platelets. The note with it: cited from earlier work.
The subject of the next data set is MDA-231 cells. The experiment in a line: Cell adhesion assay (method of Tuszynski et al.). The following applies: not radiolabeled; peptide dried in microtiter wells, one hour incubation. The class given is cell-based. How it is done:
Using the method of Tuszynski et al. J. Cell Biol. 1992, 116, 209-221, the hexapeptide Cys Ser Val Thr Cys Gly (SEQ ID NO: 4) and fibrinectin were used as controls, and the composition of SEQ ID NO: 7, as a test peptide. None of the peptides or fibrinectin were radiolabeled. Fifty μl of a […] saline solution of the peptide or protein was air dried overnight in wells of a microtiter plate. After drying, the wells were blocked with 50 μl of BSA for 30 minutes and washed with Hepes-bufferedsaline. The wells were incubated for one hour with a titer of 3.3×10^4 MDA-231 cells in 100 μl of Hepes-buffered saline containing 5 mM glucose, 1 mM MgCl2 and 1 mM CaCl2. The wells were washed once with PBS and adherent cells were fixed with 3% glutaraldehyde and stained with Giemsa overnight. The total number of adherent cells were counted under light microscopy.

For data set [1], the system named is CD36 transfected Jurkat cells. The note with it: radioiodinated (I-125); cited from earlier work.
The test system of a further data set is four tumor cell lines. The following applies: cited from earlier work.
The subject of a further data set is activated platelets. The experiment in a line: Binding of Tc-99m labeled peptide to activated platelets. Further details: species or system human. The note with it: 6 i.u. thrombin, 22° C., 15 minutes. How it is done: The labeled cyclized peptide was then assayed for its ability to bind to resting and activated platelets. The platelets used in this assay were obtained from healthy human volunteers. Platelets (0.5 ml; 0.7×10^9 platelets), which were stored in a salt balanced medium for up to four days and 20 μl of the technetium labeled cyclized peptide (approximately 1.9×10^-3 mg) were dispensed into each of six test tubes. To activate the platelets, 6 i.u. of thrombin was added to three of the tubes and gently mixed until a visible clot was formed. The remaining three tubes (absent thrombin) served as controls, i.e., resting platelets. The tubes were held at 22° C. for 15 minutes and then centrifuged at 2000 g for 10 minutes. The supernatant was separated and the platelets washed with 0.9% NaCl and centrifuged again at 2000 g for 10 minutes. Radioactivity in the supernatant and washings combined, and that associated with the platelet samples, was counted and the percentage of radiolabeled platelets in each tube was determined. […]
A thrombus imaging agent, i.e., the composition of SEQ ID NO: 7 labeled with Tc-99m, was assayed for its ability to bind to resting and activated platelets. […] Radioactivity in the supernatant and washings combined, and that associated with the platelet samples, was counted and the percentage of radiolabeled platelets in each tube was determined.

A further data set relates to forming clots. Briefly: Binding to forming human blood clots in vitro. How it is done:
In several 1 ml syringes, approximately 0.7 ml of blood was drawn, without any anti-coagulant, from a healthy human volunteer. In four of the syringes, approximately 2 μCi of the thrombus imaging agent was added and mixed, and followed by the addition of 15 i.u. units of thrombin and mixed again. […] The fluid was expelled and reserved, and the clots were washed with 0.9% NaCl. The wash was combined with the reserved expelled fluid. The clots, still in the syringe, were placed over a gamma camera (GE 300 STARCAM) and imaged for a combined total count of 35,000. The forming clots were expelled from the syringes, collected in four separate test tubes, and placed in a gamma counter (Packard 5000 series) together with the previously reserved expelled liquid for each respective sample. The percentage of radioactivity associated with each clot was determined.
Images of these (broken) clots are shown in FIG. 4C, in which 51±1.2% of the added radiolabel was taken up. The increasing uptake of the thrombus imaging agent over a prolonged period of time in a forming clot in vitro is analogous to the situation in patients in whom clots continue to form slowly for a long period of time.

A further data set concerns resting platelets. Briefly: Binding of thrombus imaging agent to resting platelets. Further details: species or system human. The note with it: absent thrombin, 22° C., 15 minutes. The procedure:
A thrombus imaging agent, i.e., the composition of SEQ ID NO: 7 labeled with Tc-99m, was assayed for its ability to bind to resting and activated platelets. Again, the platelets used in this assay were obtained from healthy volunteers. Platelets (0.5 ml; 0.7×10^9 platelets), which were stored for up to four days and 20 μl of the thrombus imaging agent (~1.9×10^-3 μg) were dispensed into each of six test tubes. To activate the platelets, 6 i.u. of thrombin was added to three of the tubes and gently mixed until a visible clot was formed. The remaining three tubes (absent thrombin) served as controls (i.e., resting platelets). The tubes were held at 22° C. for 15 minutes and then centrifuged at 2000 g for 10 minutes. The supernatant was separated and the platelets washed with 0.9% NaCl and centrifuged again at 2000 g for 10 minutes. Radioactivity in the supernatant and washings combined, and that associated with the platelet samples, was counted and the percentage of radiolabeled platelets in each tube was determined.

Another data set relates to pre-formed clots. The experiment in a line: Binding to pre-formed human blood clots in vitro. The note with it: thrombin 15 minutes prior to addition of the agent. The procedure: In several 1 ml syringes, approximately 0.7 ml of blood was drawn, without any anti-coagulant, from a healthy human volunteer. In four of the syringes, approximately 2 μCi of the thrombus imaging agent was added and mixed, and followed by the addition of 15 i.u. units of thrombin and mixed again. Clots were allowed to form for 15 minutes at 22° C. The fluid was expelled and reserved, and the clots were washed with 0.9% NaCl. The wash was combined with the reserved expelled fluid. The clots, still in the syringe, were placed over a gamma camera (GE 300 STARCAM) and imaged for a combined total count of 35,000. The forming clots were expelled from the syringes, collected in four separate test tubes, and placed in a gamma counter (Packard 5000 series) together with the previously reserved expelled liquid for each respective sample. The percentage of radioactivity associated with each clot was determined.
In the four remaining test tubes, thrombin was added and allowed to incubate for 15 minutes, prior to the addition of the thrombus imaging agent. The pre-formed clots were treated as described above and measured for radioactivity

Details of data set [2]: species or system New Zealand white rabbit. The note with it: rabbit, in vivo, iv. How it is done: Alternatively, the stability of the thrombus imaging agent was determined by comparing an HPLC elution plot of the radiolabeled composition (SEQ ID NO: 7) and of the radioactivity excreted in the urine of the rabbit given the thrombus imaging agent four hours previously. For the in vivo analysis, a preparation containing the radiolabeled composition (SEQ ID NO: 7) was injected intravenously into a New Zealand white rabbit. Urine was collected from the rabbit at four hours post-injection and a 20 μl portion of which was analyzed by HPLC as described above. The animal had not voided prior to collection of this sample.

Data set [3] in a line: In vitro stability of the thrombus imaging agent by periodic HPLC. The class given is physicochemical. The following applies: up to 18 hours after preparation. The procedure: The purity of the product was examined by HPLC (Rainin, Emeryville, Calif.) using a reverse phase C-18 column and gradient solvents of 0.1% TFA in water (solvent A) and 0.1% TFA in acetonitrile (solvent B). The gradient was such that at zero minutes, solvent A was 30%, reaching to […] 100% in 30 minutes. The flow rate was 1 ml/minute. The HPLC was equipped with a u.v. detector set at 278 nm, a 2" NaI (Tl) gamma counter and a rate meter. The radiolabeled composition (SEQ ID NO: 7), the thrombus imaging agent, was eluted at retention time 9.3 minutes, and the unbounded technetium at 3.7 minutes.
The in vitro stability of the thrombus imaging agent was examined for up to 18 hours after preparation.

The test system of data set [4] is thrombus in femoral artery. The experiment in a line: Gamma camera imaging of experimental arterial thrombus in vivo. Further details: species or system New Zealand white albino rabbit. The following applies: rabbit, intravenous, gamma camera image 15 minutes after administration (FIG. 6). An excerpt:
An experimental clot was induced in a femoral artery of a rabbit and imaged by scintigraphy.
A New Zealand white albino rabbit (3.5 kg) was anesthetized with a mixture of ketamine/zylaxine and placed in the supine position on an x-ray table. The animal was not heparinized. A small incision was made in the neck to expose the right carotid artery; a catheter inserted and with the assistance of a guidewire and a fluoroscope, the catheter was advanced in the left femoral artery. […] The puncture was confirmed when contrast agent was injected. A 3 mm×2 cm thrombogenic coil (Cooks Inc., Bloomington, Ind.) was placed in the catheter, and with the help of the guidewire was lodged in the left femoral artery above the hip joint, near the bladder (FIG. 5B).
Approximately 25 minutes after the insertion of the catheter and coil, 2.4 μCi (10 μg) of the thrombus imaging agent was injected intravenously into the animal and serial gamma camera images were obtained.

As for ANKHYF [SEQ ID NO: 5], the “effect on ADP-induced platelet aggregation” value (shortened to “effect”) in the data set on platelets is recorded as “no biological activity”.
In the case of “Gly (D)Ala Gly Gly Aba Tyr Cys(Acm) Ser Val Thr Cys(Acm) Gly (G[dA]GG[GABA]YC(Acm)SVTC(Acm)G) [SEQ ID NO: 7]”, in the data set with MDA-231 cells, the “lower cell adhesion as compared to fibronectin” value is “approximately 17%” and the “proportion of cells demonstrating cell adhesion, test peptide versus hexapeptide (SEQ ID NO: 4)” value is on record as “No statistical difference”.
On to “VCTGSC (cysteine pairing not given here) [SEQ ID NO: 6]”, for which the “effect” value in the data set on platelets is recorded as “no biological activity”.
Turning to “YCSVTCG (cysteine pairing not given here) [SEQ ID NO: 3]”, the “binding to CD36 transfected Jurkat cells” value in [1] is on record as “binds strongly”.
As for “cyclic form: cyclic form of SEQ ID NO: 4 in which two cysteine residues are cyclized (CSVTCG; disulfide 1-5 (inferred))”, the “binding to four tumor cell lines relative to the native sequence” value with four tumor cell lines is “approximately to the same extent as the native sequence”. Moreover, the “effect” value in the data set with platelets is “inhibited ADP-induced platelet aggregation”.
Turning to “cysteine protected form: derivative of SEQ ID NO: 4 in which the two cysteine residues are blocked by acetaminomethyl (Acm) (C(Acm)SVTC(Acm)G)”, in the data set on four tumor cell lines, the “binding to four tumor cell lines relative to the native sequence” value is given as “approximately to the same extent as the native sequence”. Further, in the data set with platelets, the “effect” value is recorded as “inhibited ADP-induced platelet aggregation”.
“labeled cyclized peptide: cyclized peptide Cys Ser Val Thr Cys Gly (SEQ ID NO: 4) directly labeled with Tc-99m at sulfhydryl moieties (CSVTCG; also: cyclized, kind not given here, directly labeled with Tc-99m at sulfhydryl moieties)”: the “added radiolabel bound to activated platelets” value in the data set on activated platelets is recorded as below 2%.
For “thrombus imaging agent: the composition of SEQ ID NO: 7 labeled with Tc-99m (G[dA]GG[GABA]YC(Acm)SVTC(Acm)G; also: Tc-99m label)”, the “gamma camera images, radioactivity in forming versus preformed clots” value with forming clots (FIGS. 4A and 4B, qualitative) is “more radioactivity in the forming clots than in the preformed clots”. In the data set on forming clots (agent added before thrombin, 15 minutes at 22° C.), the “radioactivity level measured in the forming clot” value is listed as 27.6±0.2%. Further, in the data set with forming clots (incubated for 2 hours at 22° C.), the “added radiolabel taken up by forming clots” value is on record as 51±1.2%. Besides, the “added radiolabel bound to resting platelets” value with resting platelets is on record as 2.1±0.5%. Besides, the “radioactivity level measured in the preformed clots” value with pre-formed clots came to 6.4±3.2%. Moreover, in [2], the “quantity of free Tc-99m in urine versus the injected preparation” value was “substantially the same”. Moreover, the “quantity of free Tc-99m versus time of preparation” value in data set [3] was “had not increased”. Besides, in the data set with activated platelets, the “added radiolabel bound to activated platelets” value worked out at 12.5±1.2%. In data set [4], the “uptake of radioactivity at the site of the punctured artery (clot)” value is recorded as “intense uptake of radioactivity”.

Source of the values: patent US5886142A, “Radiolabeled thrombus imaging agents” (Thomas Jefferson University, priority 1997, dated 1999).
